Experiments:
human orexin-2 receptor = human orexin-2 receptor (Homo sapiens (Human), UniProt O43614); assay: In vitro assay: intracellular calcium measurements (FLIPR), antagonistic activity; type: cell-based; conditions: CHO cells expressing human orexin-2 receptor, orexin-A agonist, geometric mean, read-out: IC50 Ox2
Procedure, shortened: (§1)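 Dye-loaded CHO cells expressing either human orexin receptor are exposed to test antagonist for 120 min, then stimulated with orexin-A at 3 nM.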

human orexin-1 receptor = human orexin-1 receptor (Homo sapiens (Human), UniProt O43613); assay: as above; type: cell-based; conditions: CHO cells expressing human orexin-1 receptor, orexin-A agonist, geometric mean, read-out: IC50 Ox1
human orexin-1 receptor, sequence (O43613 whole entry): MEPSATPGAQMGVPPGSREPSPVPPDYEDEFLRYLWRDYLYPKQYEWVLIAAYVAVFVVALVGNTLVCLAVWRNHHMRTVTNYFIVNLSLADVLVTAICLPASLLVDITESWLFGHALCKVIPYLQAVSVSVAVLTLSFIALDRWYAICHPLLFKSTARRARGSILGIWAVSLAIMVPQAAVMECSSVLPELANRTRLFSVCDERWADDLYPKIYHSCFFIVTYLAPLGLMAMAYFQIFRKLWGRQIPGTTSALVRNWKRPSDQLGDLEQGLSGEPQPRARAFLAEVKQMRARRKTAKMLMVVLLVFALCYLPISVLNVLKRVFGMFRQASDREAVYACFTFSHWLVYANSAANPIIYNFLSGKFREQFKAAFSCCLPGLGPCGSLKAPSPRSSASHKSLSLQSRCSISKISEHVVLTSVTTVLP
Procedure, shortened: as §1

human orexin-2 receptor, sequence (O43614 whole entry): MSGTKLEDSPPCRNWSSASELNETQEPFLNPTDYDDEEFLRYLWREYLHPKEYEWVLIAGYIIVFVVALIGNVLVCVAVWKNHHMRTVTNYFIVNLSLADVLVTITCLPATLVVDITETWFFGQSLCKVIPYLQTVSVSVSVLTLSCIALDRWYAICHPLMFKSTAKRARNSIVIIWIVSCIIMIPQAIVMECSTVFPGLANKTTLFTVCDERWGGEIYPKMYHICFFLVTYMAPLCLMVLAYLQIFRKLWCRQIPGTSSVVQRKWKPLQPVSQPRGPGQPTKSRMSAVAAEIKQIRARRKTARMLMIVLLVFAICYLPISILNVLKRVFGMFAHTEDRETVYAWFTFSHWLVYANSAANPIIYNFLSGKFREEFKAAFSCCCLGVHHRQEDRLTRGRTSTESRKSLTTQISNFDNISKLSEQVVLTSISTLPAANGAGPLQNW

Row | IC50 (human orexin-2 receptor) | IC50 (human orexin-1 receptor) | Compound
1 | 133 nM | 7 nM | Cc1cc2[nH]c([C@@H]3[C@@H](C)CCN3C(=O)c3cc(Cl)ccc3-n3nccn3)nc2cc1Cl [Ex. 4.71]
2 | 105 nM | 12 nM | Cc1ccc(C(=O)N2CCC[C@@]2(C)c2nc3c(C)c(C)c(Br)cc3[nH]2)c(-n2nccn2)c1C [Ex. 5.267]
3 | 135 nM | 15 nM | COc1cccc(-c2nc(C(=O)N3CCC[C@@]3(C)c3nc4ccc(Cl)c(C)c4[nH]3)c(-c3ccc(F)cc3)s2)c1 [Ex. 5.231]
4 | 62 nM | 16 nM | Cc1cccc(-c2ccc(C)cc2C(=O)N2CCC[C@@]2(C)c2nc3cc(C(F)(F)F)ccc3[nH]2)c1 [Ex. 5.189]
5 | 52 nM | 154 nM | C=C1C[C@@H](c2nc3cc(OC)ccc3[nH]2)N(C(=O)c2nc(C3CC3)sc2-c2ccc(C)c(F)c2)C1 [Ex. 6.25]
6 | 60 nM | 27 nM | Cc1ccc(-c2ccccc2F)c(C(=O)N2CCC[C@@]2(C)c2nc3cc(C)c(C)cc3n2CCF)c1 [Ex. 7.52]
7 | 11 nM | 11 nM | C=C1C[C@@H](c2nc3cc(C(C)(C)C)ccc3[nH]2)N(C(=O)c2nc(C)sc2-c2ccc(C)c(C)c2)C1 [Ex. 6.57]
8 | 119 nM | 58 nM | Cc1ccc(-c2cccc(C#N)c2)c(C(=O)N2CCC[C@@]2(C)c2nc3cc(C(F)(F)F)ccc3[nH]2)c1 [Ex. 5.190]
9 | 80 nM | 726 nM | CSc1ccc2nc([C@@H]3CCCN3C(=O)c3cncnc3-c3ccc(Br)c(Cl)c3)[nH]c2c1 [Ex. 1.54]
10 | 17 nM | 53 nM | C=C1C[C@@H](c2nc3cc(OC)ccc3[nH]2)N(C(=O)c2nc(C)sc2-c2ccc(F)c(Br)c2)C1 [Ex. 6.24]
11 | 248 nM | 182 nM | COc1cc2nc([C@@H]3[C@@H](C)CCN3C(=O)c3cc(F)ccc3-n3nccn3)[nH]c2cc1OC [Ex. 4.41]
12 | 61 nM | 67 nM | Cc1nc(C(=O)N2C[C@H](F)C[C@H]2c2nc3c(C)cccc3[nH]2)c(-c2ccccc2)s1 [Ex. 2.3]
13 | 3 nM | 0.9 nM | C=C1CC(c2nc3c(Br)cccc3[nH]2)N(C(=O)c2nc(C3CC3)sc2-c2cccc(C)c2)C1 (stereo not shown) [Ex. 6.93]
14 | 26 nM | 116 nM | COc1cc2nc(C3CCCN3C(=O)c3nc(C)sc3-c3ccccc3)[nH]c2cc1OC (stereo not shown) [Ex. 1.134]
15 | 23 nM | 674 nM | CO[C@@H]1C[C@@H](c2nc3ccc(Cl)c(C)c3[nH]2)N(C(=O)c2c(C)cccc2-n2nccn2)C1 [Ex. 3.14]
16 | 36 nM | 13 nM | Cc1c(Cl)ccc2[nH]c([C@]3(C)CCCN3C(=O)c3cc(F)ccc3-c3ccccc3)nc12 [Ex. 5.218]
17 | 180 nM | 6 nM | Cc1nc(C(=O)N2CC[C@H](C)[C@H]2c2nc3c(C(F)(F)F)cccc3[nH]2)c(-c2ccc(Cl)cc2)s1 [Ex. 4.150]
18 | 3090 nM | 5 nM | COc1cccc(-c2sc(C)nc2C(=O)N2CC[C@H](C)[C@H]2c2nc3cc(C(F)(F)F)ccc3[nH]2)c1 [Ex. 4.137]
19 | 49 nM | 1750 nM | C=C1C[C@@H](c2nc3cc(OC)ccc3[nH]2)N(C(=O)c2ccccc2-c2nc(C)no2)C1 [Ex. 6.20]
20 | 90 nM | 616 nM | CSc1ccc2nc([C@@H]3CCCN3C(=O)c3cncnc3-c3ccc(C)c(C)c3)[nH]c2c1 [Ex. 1.53]
21 | 24 nM | 26 nM | C=C1C[C@@H](c2nc3cc(OC)ccc3[nH]2)N(C(=O)c2nc(C3CC3)sc2-c2cccc(C)c2)C1 [Ex. 6.26]
22 | 0.5 nM | 9 nM | C=C1C[C@@H](c2nc3ccc(Cl)c(C)c3[nH]2)N(C(=O)c2cc(OC)ccc2-n2nccn2)C1 [Ex. 6.131]
23 | 1070 nM | 389 nM | C[C@@]1(c2nc3cc(C(F)(F)F)ccc3[nH]2)CCCN1C(=O)c1ccccc1-n1cccn1 [Ex. 5.176]
24 | 8 nM | 0.9 nM | CO[C@@H]1C[C@@H](c2nc3ccc(Cl)c(C)c3[nH]2)N(C(=O)c2nc(C)sc2-c2ccc(C)c(C)c2)C1 [Ex. 3.34]
25 | 31 nM | 22 nM | Cc1ccc(-c2ncccn2)c(C(=O)N2CCC[C@@]2(C)c2nc3cccc(C)c3[nH]2)c1 [Ex. 5.278]
26 | 1 nM | 6 nM | C=C1CC(c2nc3cc(C)c(C)cc3[nH]2)N(C(=O)c2nc(C3CC3)sc2-c2cccc(C)c2)C1 (stereo not shown) [Ex. 6.90]
27 | 15 nM | 20 nM | C=C1C[C@@H](c2nc3cc(OC)ccc3[nH]2)N(C(=O)c2nc(C3CC3)sc2-c2cccc(Br)c2)C1 [Ex. 6.28]
28 | 254 nM | 8 nM | C[C@@]1(c2nc3cc(C(F)(F)F)ccc3[nH]2)CCCN1C(=O)c1cc(-c2cccc(C#N)c2)ccc1-n1nccn1 [Ex. 5.295]

Row | IC50 (human orexin-2 receptor) | IC50 (human orexin-1 receptor) | Compound
29 | 110 nM | 763 nM | CSc1ccc2nc([C@@H]3CCCN3C(=O)c3cc(C(F)(F)F)ccc3-n3nccn3)[nH]c2c1 [Ex. 1.151]
30 | 69 nM | 18 nM | COc1ccc(-c2ccc(C)cc2C(=O)N2CCC[C@@]2(C)c2nc3cc(C(F)(F)F)ccc3[nH]2)cc1 [Ex. 5.191]
31 | 507 nM | 46 nM | Cc1ccc(-n2nccn2)c(C(=O)N2CCC[C@@]2(C)c2nc3c(F)c(F)ccc3[nH]2)c1 [Ex. 5.27]
32 | 5 nM | 245 nM | COc1ccc2nc([C@@H]3CCCN3C(=O)c3cc(C)ccc3-n3nccn3)[nH]c2c1 [Ex. 1.16]
33 | 155 nM | 12 nM | Cc1ccc(-n2nccn2)c(C(=O)N2CC[C@H](C)[C@H]2c2nc3cc(C)c(C)cc3[nH]2)c1 [Ex. 4.30]
34 | 203 nM | 4 nM | COc1cccc(C#Cc2ccccc2C(=O)N2CC[C@H](C)[C@H]2c2nc3cc(Cl)c(C)cc3[nH]2)c1 [Ex. 4.135]
35 | 19 nM | 1160 nM | COc1ccc2[nH]c([C@@H]3CCCN3C(=O)c3c(-n4nccn4)ccc(C)c3F)nc2c1 [Ex. 1.172]
36 | 67 nM | 1260 nM | C=C1C[C@@H](c2nc3cc(C(C)(C)C)ccc3[nH]2)N(C(=O)c2ccccc2-n2cccn2)C1 [Ex. 6.172]
37 | 501 nM | 23 nM | Cc1cc2[nH]c([C@@H]3[C@@H](C)CCN3C(=O)c3cc(F)ccc3-c3ncccn3)nc2cc1Cl [Ex. 4.131]
38 | 54 nM | 3930 nM | COc1ccc2[nH]c([C@@H]3CCCN3C(=O)c3nc(C)ccc3-n3nccn3)nc2c1 [Ex. 1.173]
39 | 603 nM | 2 nM | Cc1nc(C(=O)N2CC[C@H](C)[C@H]2c2nc3cccc(C)c3[nH]2)c(-c2cccc(Cl)c2)s1 [Ex. 4.7]
40 | 19 nM | 3 nM | Cc1ccc(C(=O)N2CC[C@H](C)[C@H]2c2nc3c(C)c(Cl)ccc3[nH]2)c(-n2nccn2)c1 [Ex. 4.62]
41 | 0.5 nM | 1 nM | C=C1C[C@@H](c2nc3ccc(Cl)c(C)c3[nH]2)N(C(=O)c2nc(C)sc2-c2cccc(OC)c2)C1 [Ex. 6.121]
42 | 352 nM | 7 nM | Cc1ccc(-c2ccccc2C(=O)N2CC[C@H](C)[C@H]2c2nc3cc(C)c(C)cc3[nH]2)cc1 [Ex. 4.86]
43 | 34 nM | > 6970 nM | C=C1C[C@@H](c2nc3ccc(OC)cc3[nH]2)N(C(=O)c2nc(C)ccc2-n2cccn2)C1 [Ex. 6.138]
44 | 350 nM | 7 nM | Cc1ccc(-c2ncccn2)c(C(=O)N2CC[C@H](C)[C@H]2c2nc3c(C)c(Cl)ccc3[nH]2)c1 [Ex. 4.178]
45 | 0.6 nM | 137 nM | C=C1C[C@@H](c2nc3ccc(OC)cc3[nH]2)N(C(=O)c2cc(C)c(C)cc2-n2nccn2)C1 [Ex. 6.139]
46 | 2160 nM | 6 nM | Cc1nc(C(=O)N2CC[C@H](C)[C@H]2c2nc3cc(C(F)(F)F)ccc3[nH]2)c(-c2ccc(Br)cc2)s1 [Ex. 4.142]
47 | 1 nM | 5 nM | C=C1CC(c2nc3cccc(Cl)c3[nH]2)N(C(=O)c2nc(C3CC3)sc2-c2cccc(C)c2)C1 (racemic) [Ex. 6.99]
48 | 720 nM | 17 nM | Cc1ccc(C(=O)N2CCC[C@@]2(C)c2nc3cc(C)c(C)cc3n2C)c(-n2nccn2)c1 [Ex. 7.11]
49 | 19 nM | 37 nM | Cc1nc(C(=O)N2CCCC2c2nc3c(C)c(C)ccc3[nH]2)c(-c2cccc(Cl)c2)s1 (stereo not shown) [Ex. 1.115]
50 | 70 nM | 23 nM | COCCn1c([C@]2(C)CCCN2C(=O)c2cc(C)ccc2-c2cccc(C)c2)nc2cc(C)c(C)cc21 [Ex. 7.29]
51 | 74 nM | 99 nM | Cc1ccc2[nH]c([C@]3(C)CCCN3C(=O)c3ccccc3-c3ccc(F)cc3)nc2c1C [Ex. 5.122]
52 | 18 nM | 10 nM | COc1ccc(-c2cccc(F)c2)c(C(=O)N2CCC[C@@]2(C)c2nc3ccc(Cl)c(C)c3[nH]2)c1F [Ex. 5.300]
53 | 91 nM | 218 nM | C=C1CN(C(=O)c2ccccc2-c2ccccc2)C(C)(c2nc3cc(OC)ccc3[nH]2)C1 (stereo not shown) [Ex. 6.150]
54 | 252 nM | 232 nM | CO[C@H]1CN(C(=O)c2cc(C(F)(F)F)ccc2-n2nccn2)C(C)(c2nc3c(C)c(Cl)ccc3[nH]2)C1 (stereo partly shown) [Ex. 3.50]
55 | 3 nM | 14 nM | C=C1C[C@@H](c2nc3ccc(Cl)c(C)c3[nH]2)N(C(=O)c2nc(C)sc2-c2ccc(Br)cc2)C1 [Ex. 6.116]

Row | Compound | IC50 (human orexin-2 receptor) | IC50 (human orexin-1 receptor)
56 | Cc1c(Cl)ccc2[nH]c([C@]3(C)CCCN3C(=O)c3cc(F)ccc3-n3nccn3)nc12 [Ex. 5.45] | 12 nM | 5 nM
57 | COc1ccc(-n2nccn2)c(C(=O)N2CCC[C@@]2(C)c2nc3c(C)c(Cl)ccc3[nH]2)c1F [Ex. 5.37] | 16 nM | 10 nM
58 | COc1ccc(-n2nccn2)c(C(=O)N2CCC[C@@]2(C)c2nc3c(C)cccc3[nH]2)c1 [Ex. 5.50] | 33 nM | 49 nM
59 | Cc1ccc(-n2nccn2)c(C(=O)N2CCC[C@@]2(C)c2nc3cc(C(F)(F)F)c(Cl)cc3[nH]2)c1 [Ex. 5.24] | 9 nM | 2 nM

— patent US9732075B2, “Benzimidazole-proline derivatives” (IDORSIA PHARMACEUTICALS LTD, priority 2012, dated 2017)
